Measured values published in patent publication US11628179B2, “Compounds for treating and preventing extracellular histone mediated pathologies” (priority 2017, dated 2023).
“And” between values parts separate entries of the source, which are not always exact repeats. Equal entries are not always repeated.

Columns and labels:
whole blood coagulation = assay: ROTEM whole blood coagulation analysis (anticoagulant effect of compounds); conditions: NATEM assay, 50 and 100 μg/mL
mice = assay: In-vivo histone toxicity assay, organ damage markers at 4 hr; parameters: species or system mouse; conditions: 6.25, 25 and 100 mg/kg i.p. 10 min prior to histones 50 mg/kg i.v.; blood at 4 hr
human platelets = assay: Histone-induced platelet aggregation; type: cell-based; conditions: compounds added prior to histones 150 μg/mL
[1] = tested on: Human platelets in whole blood; assay: Histone-induced platelet degranulation (ATP release); type: cell-based; conditions: compounds added prior to histones 400 μg/mL
human liver microsomes = assay: Phase I metabolism in human liver microsomes; conditions: 1 μM, 1 h incubation, NADPH, 0.3 mg/ml microsomes
Protocol: (§1) A stock concentration of 25 μM mCBS dissolved in 50% methanol in water was added to the reaction tubes (10 μL). […] Samples were then vortex-mixed and centrifuged for 10 min at 14,000 rpm. Half of the samples (375 μl) were transferred to glass tubes and evaporated under a stream of nitrogen and at 37° C. Samples were then reconstituted in mobile phase A (250 μL). The final concentration of mCBS was 1 μM in the incubation medium.
(§2) The reaction mixtures were incubated for 1 hour with sampling in triplicate at 0, 15, 30, 45 and 60 min time points. A negative control (no NADPH) was used in parallel with the study samples. A positive control; midazolam, 25 μM (10 μL) was incubated in the same condition for 1 h. The final concentration of midazolam was 1 μM in the incubation medium

rat liver microsomes = assay: Phase I metabolism in rat liver microsomes; conditions: 1 μM, 1 h incubation, NADPH, 0.3 mg/ml microsomes
Protocol: as §1, §2

dog liver microsomes = assay: Phase I metabolism in dog liver microsomes; conditions: 1 μM, 1 h incubation, NADPH, 0.3 mg/ml microsomes
Protocol: as §1, §2

human RBCs [2] = assay: Histone-induced RBC aggregation (flow cytometry autofluorescence, SEM); type: cell-based; conditions: 0-200 μg/mL added prior to 400 μg/mL histones
human RBCs [3] = assay: Histone-induced RBC fragility / lysis under shear; type: cell-based; conditions: 0-200 μg/mL prior to 400 μg/mL histones 60 min; 100 mm/s, 40× repetitions
[4] = mCBS vs CBS levels in bulk powder stored at −20° C. (CAD); type: physicochemical
Protocol: Table 2b compares mCBS vs CBS levels in a representative batch of bulk powder when stored at −20° C. over 24 months. T is for time in months. T=0 or T0 represents analytical results carried out on completion of manufacture. Subsequent analysis indicated are relative to the initial analysis of the drug powder or formulation (e.g. […] Analytical method employing CAD (Charged Aerosol Detector) was used to measure the level of mCBS purity and its impurities and expressed as CAD %.

C57BL/6 mice = assay: Murine deep vein thrombosis (DVT) model, histone-mediated; type: in vivo, mouse; conditions: CBS 50 mg/kg i.v. 5 min after histones 10 mg/kg i.v., 48 h
Protocol: Murine deep vein thrombosis (DVT) model. The procedure used is largely as previously described (see Brill, A. et al. Neutrophil extracellular traps promote deep vein thrombosis in mice. J Thromb Haemost 10, 136-144, doi: 10.1111/j.1538-7836.2011.04544.x (2012)). […] The peritoneum and skin were closed following which all mice received an i.v. injection of histones via the tail vein (10 mg kg^−1) or an equivalent volume of saline followed 5 min later by an i.v. injection of test compounds (50 mg kg^−1) or saline. Mice were monitored for 48 h after which they were re-anesthetised, re-opened and any thrombi that had developed distal to the IVC stenosis were removed for analysis. Sham operated control animals received laparotomy and 90% ligation of the IVC, however the ligation was removed immediately after occlusion of the IVC.

Wistar rats [5] = assay: Rat caecal ligation and puncture (CLP), severe sepsis; type: in vivo
Protocol: Rat caecal ligation and puncture (CLP) assay for sepsis. The CLP assay was performed in male Wistar rats as previously described (see Hubbard, W. J. et al. Cecal ligation and puncture. Shock 24 Suppl 1, 52-57 (2005).). Test compounds (50 mg kg^−1) dissolved in saline or an equivalent volume of saline only (Control cohort) were administered i.p. 5 min pre-CLP and 5, 10 and 15 h post-op until cessation of the experiment at 20 h. Sham-CLP rats underwent the same procedure, however, the caecum was not ligated or punctured and these rats received saline at the same times as above. At the conclusion of the experimental time period (20 h) or when morbidity required ethical euthanasia, the rats were anaesthetised and blood was collected via cardiac puncture into EDTA for subsequent analysis of liver (ALT) and kidney (creatinine) function by the Department of Pathology, The Canberra Hospital. The propensity for clots to form within the blood samples of the saline treated control CLP animals (despite the presence of EDTA) prevented successful analysis of plasma samples from all animals.

[6] = Stability of mCBS vs CBS in formulated clinical material (HPLC); type: physicochemical; conditions: formulated clinical material in phosphate buffer, 5±3° C., 25±2° C./60% RH, 40±2° C./75% RH
Protocol: Stability studies were carried out at 5±3° C., 25±2° C./60% RH and 40±2° C./75% RH ° C. conditions. Levels of both mCBS and cellobiose sulfate (CBS) were tracked in formulated clinical material (i.e. mCBS in phosphate buffer) via HPLC.

[7] = mCBS vs CBS levels in phosphate buffered pH 7.5 clinical trial formulation stored at 2-8° C. (CAD); type: physicochemical
Wistar rats [8] = assay: Rat cardiac IRI model; type: in vivo; conditions: 30 mg kg−1 into left ventricle 5 min prior to reperfusion
Protocol: Rat cardiac IRI model. […] Male Wistar rats were anaesthetised with isofluorane, intubated via tracheostomy and ventilated with a tidal volume of 1 ml 150 g^−1 and a respiratory rate of 65 breaths min^−1. Supplemental oxygen was delivered at a FiO2 of ˜30%. A left hemi-thoracotomy was performed to enable visualisation of the left ventricle. The left coronary arterial plexus (LCA) was occluded using an atraumatic snare for 30 min prior to reperfusion for 30 min. Ischemia was confirmed by myocardial hyperaemia. The test compounds (30 mg kg^−1) or an equivalent volume (200 μl) of saline were injected into the lumen of the left ventricle (confirmed with aspiration) 5 min prior to the release of the snare for the reperfusion phase.
At the conclusion of reperfusion (30 min), Thioflavin S (1 ml 200 g^−1 of body weight) was slowly injected into the lumen of the left ventricle, to define the territory of microvascular obstruction (MVO) within the ischemic zone (IZ). The IZ territory was determined by the re-occlusion of the atraumatic snare and infusion of blue microspheres into the left ventricle (Unisperse Blue, BASF), distributed within solutions via ultrasonication using a CD-6800 (Unisonics) sonicator. […] Planimetry (Image J, Freeware) was used to quantify the areas of the IZ, MVO and necrosis.

[9] = Lipid bilayer assay (histone rupture of bilayers)
Protocol: Lipid bilayer assays. Artificial lipid bilayers, prepared as previously described (Rebbeck, R. T. et al. The beta (1a) subunit of the skeletal DHPR binds to skeletal RyR1 and activates the channel via its 35-residue C-terminal tail. Biophys J 100, 922-930, doi:10.1016/j.bpj.2011.01.022 (2011).), separated symmetrical 150 mM or 250 mM KCl (pH ˜5.5) solutions. Histones (1 μM, 15.2 μg ml^−1) were added to bilayers alone or after 0.5-3 h incubation with 10 μM CBS (3.5 μg ml^−1) or 10 μM MTS (5.1 μg ml^−1) at −20° C. Current was recorded continuously after histone addition until the bilayers broke or the experiment was terminated.
To examine this possibility artificial lipid bilayers were prepared and their susceptibility to histone rupture detected by changes in current across the bilayers.

Molecule: melezitose sulfate
- clot formation (whole blood coagulation): No clotting was detected
- clot formation (whole blood coagulation; listed as melezitose): no clot was detected

Molecule: O=C[C@H](O)[C@@H](O)[C@H](O[C@@H]1O[C@H](CO)[C@@H](O)[C@H](O)[C@H]1O)[C@H](O)CO [CB, cellobiose]
- protection from histone-induced organ damage (LDH, ALT, creatinine) (mice): inactive
- histone-induced platelet aggregation (human platelets): no inhibitory activity
- histone-induced platelet degranulation (ATP release) [1]: no inhibitory activity

Molecule: Cc1ncc2n1-c1ccc(Cl)cc1C(c1ccccc1F)=NC2 [midazolam]
- phase I metabolic stability (human liver microsomes): almost completely metabolised
- phase I metabolic stability (rat liver microsomes): almost completely metabolised
- phase I metabolic stability (dog liver microsomes): almost completely metabolised

Molecule: cellobiose sulfate [CBS]
- protection from histone-induced organ damage (LDH, ALT, creatinine) (mice): protects animals from histone-mediated injury
- inhibition of histone-induced RBC aggregation (human RBCs [2]): inhibit histone-induced RBC aggregation in a dose dependent manner
- inhibition of histone-induced RBC lysis under shear (human RBCs [3]): inhibit histone-induced lysis under shear in a dose-dependent manner
- stability when stored in powder ([4]; 24 months): stable
- level in bulk powder ([4]; T0 (months)): 0.23 CAD %
- level in bulk powder ([4]; T1): 0.25 CAD %
- level in bulk powder ([4]; T3): 0.28 CAD %
- level in bulk powder ([4]; T6): 0.32 CAD %
- level in bulk powder ([4]; T9): 0.36 CAD %
- level in bulk powder ([4]; T12): 0.36 CAD %
- level in bulk powder ([4]; T18): 0.36 CAD %
- level in bulk powder ([4]; T24): 0.29 CAD %
- histone-mediated deep vein thrombosis (C57BL/6 mice): almost totally inhibited
- high ALT and creatinine levels (liver and kidney damage) (Wistar rats [5]; CBS treated animals): not seen
- mortality (Wistar rats [5]; CBS treatment group vs controls): no mortalities
- level relative to starting amount (T=0) over time [6]: drops very rapidly and is almost gone by around 3 months
- level in phosphate buffered pH 7.5 formulation ([7]; 2-8° C., T0 (months)): 0.25 CAD %
- level in phosphate buffered pH 7.5 formulation ([7]; 2-8° C., T2): 0.03 CAD %
- level in phosphate buffered pH 7.5 formulation ([7]; 2-8° C., T3): 0.07 CAD %
- level in phosphate buffered pH 7.5 formulation ([7]; 2-8° C., T7): 0.03 CAD %
- level in phosphate buffered pH 7.5 formulation ([7]; 2-8° C., T10): 0.04 CAD %
- level in phosphate buffered pH 7.5 formulation ([7]; 2-8° C., T13): 0.04 CAD %
- level in phosphate buffered pH 7.5 formulation ([7]; 2-8° C., T19): <0.03 CAD %
- stability when stored in aqueous buffered solution ([7]; 2-8° C., over 18 months): highly unstable
- level reduced to (detection limit) ([7]; aqueous buffered solution, within 3-6 month of storage at 2-8° C.): 0.03 CAD %
- area of microvascular obstruction (Wistar rats [8]): significantly reduced
- reduction of myocardial necrosis in the ischemic zone (Wistar rats [8]): 50%
- incidence of rapid bilayer rupture ([9]; histones 1 μM + CBS, 3 of 52 bilayers, within 0.3 to 0.5 min): 5.8%
- average bilayer lifetime ([9]; histones 1 μM in the presence of CBS 10 μM): 18 ± 4 min and 36 ± 5 min
- histone-induced platelet aggregation (human platelets): significantly reduced
- histone-induced platelet degranulation (ATP release) [1]: significantly reduced
